In US10052331B2, “3-(3H-imidazo[4,5-C]pyridin-2-yl)-1H-pyrazolo[3,4-C]pyridine and therapeutic uses thereof” (Samumed, LLC, priority 2014, dated 2018) one finds IC50 data, which are given here for 23 compounds.

The test concerns Wnt activity (Wnt-responsive Sp5 promoter-luciferase reporter in SW480 cells). Put plainly: Wnt activity screening assay: Sp5-Luc reporter gene in SW480 colon carcinoma cells. Type of test: cell-based. To be noted: Homo sapiens. The text has this: The screening assay for Wnt activity is described as follows. Reporter cell lines can be generated by stably transducing cancer cell lines (e.g., colon cancer) or primary cells (e.g., IEC-6 intestinal cells) with a lentiviral construct that includes a Wnt-responsive promoter driving expression of the firefly luciferase gene.
SW480 colon carcinoma cells were transduced with a lentiviral vector expressing luciferase with a human Sp5 promoter consisting of a sequence of eight TCF/LEF binding sites. SW480 cells stably expressing the Sp5-Luc reporter gene and a hygromycin resistance gene were selected by treatment with 150 μg/ml of hygromycin for 7 days. These stably transduced SW480 cells were expanded in cell culture and used for all further screening activities. For Sp5-Luc reporter gene assays, the cells were plated at 10,000 cells/well in 96-well plates with growth medium containing 10% fetal calf serum and incubated overnight at 37° C. and 5% CO2. Each compound was dissolved in DMSO as a 10 mM stock in standard j-vials and used to prepare compound source plates in dose-response format with 3-fold serial dilutions and a 10 mM top concentration. Compound transfer from serially diluted source plates to assay plates containing the cells was accomplished using a pintool (Multimek 96, Beckman equipped with V&P Scientific FP1S50H pins) based liquid handling protocol. This protocol used a slotted pin to transfer 50 nl of compound from a source plate well to an assay plate well containing 50 μl of cells in growth medium. […] Control wells received 50 nl of DMSO treatment for normalization and calculating IC50 values. The treated cells were incubated at 37° C. and 5% CO2 for an additional forty-two hours. Following incubation, the growth medium was removed and 50 μl of BrightGlo luminescence reagent (Promega) was added to each well of the 96-well assay plates. The plates were placed on an orbital shaker for 5 min and then luminescence was quantified on the Victor3 (Perkin Elmer) plate reader. Readings were normalized to DMSO only treated cells, and normalized activities were utilized for IC50 calculations using the dose-response log (inhibitor) vs. response-variable slope (four parameters) nonlinear regression feature available in GraphPad Prism 5.0 or 6.0.
(A reporter such as luciferase makes a cellular process visible.)
A word on the IC50: it is the point on the concentration scale where inhibition reaches its midpoint. Low readings indicate greater potency, high ones weaker potency. Regarding `CC(C)CC(=O)Nc1cncc(-c2cc3c(-c4nc5c(-c6cc(F)cc(OCCN(C)C)c6)cncc5[nH]4)n[nH]c3cn2)c1` [Compound 1192, N-(5-(3-(7-(3-(2-(Dimethylamino)ethoxy)-5-fluorophenyl)-3H-imidazo[4,5-c]pyridin-2-yl)-1H-pyrazolo[3,4-c]pyridin-5-yl)pyridin-3-yl)-3-methylbutanamide], the concentration for half-maximal inhibition (IC50) was above 10000 nM.

Regarding `O=C(CC1CCCCC1)Nc1cncc(-c2cc3c(-c4nc5c(-c6cccc(F)c6)cncc5[nH]4)n[nH]c3cn2)c1` [Compound 899, 2-Cyclohexyl-N-(5-(3-(7-(3-fluorophenyl)-3H-imidazo[4,5-c]pyridin-2-yl)-1H-pyrazolo[3,4-c]pyridin-5-yl)pyridin-3-yl)acetamide], the IC50 is 1740 nM.

`CC(C)CC(=O)Nc1cncc(-c2cc3c(-c4nc5c(-c6cc(F)cc(OCCN7CCCC7)c6)cncc5[nH]4)n[nH]c3cn2)c1` [Compound 1236, N-(5-(3-(7-(3-Fluoro-5-(2-(pyrrolidin-1-yl)ethoxy)phenyl)-3H-imidazo[4,5-c]pyridin-2-yl)-1H-pyrazolo[3,4-c]pyridin-5-yl)pyridin-3-yl)-3-methylbutanamide] displayed an IC50 above 10000 nM.

`CC(C)CC(=O)Nc1cncc(-c2cc3c(-c4nc5c(-c6cccs6)cncc5[nH]4)n[nH]c3cn2)c1` [Compound 288, 3-Methyl-N-(5-(3-(7-(thiophen-2-yl)-3H-imidazo[4,5-c]pyridin-2-yl)-1H-pyrazolo[3,4-c]pyridin-5-yl)pyridin-3-yl)butanamide]: the IC50 is 79 nM.

Consider `CC(C)(C)CC(=O)Nc1cncc(-c2cc3c(-c4nc5c(-c6ccccc6F)cncc5[nH]4)n[nH]c3cn2)c1` [Compound 68, N-(5-(3-(7-(2-Fluorophenyl)-3H-imidazo[4,5-c]pyridin-2-yl)-1H-pyrazolo[3,4-c]pyridin-5-yl)pyridin-3-yl)-3,3-dimethylbutanamide], for which the IC50 amounted to 167 nM. This IC50 lies about 2.1-fold higher than the previous one.

`CCC(=O)Nc1cncc(-c2cc3c(-c4nc5c(-c6cccc(F)c6)cncc5[nH]4)n[nH]c3cn2)c1` [Compound 1, N-(5-(3-(7-(3-Fluorophenyl)-3H-imidazo[4,5-c]pyridin-2-yl)-1H-pyrazolo[3,4-c]pyridin-5-yl)pyridin-3-yl)propionamide] had a 50% inhibitory concentration (IC50) of 61 nM.

`CC(C)C(=O)Nc1cncc(-c2cc3c(-c4nc5c(-c6cccnc6)cncc5[nH]4)n[nH]c3cn2)c1` [Compound 87, N-(5-(3-(7-(Pyridin-3-yl)-3H-imidazo[4,5-c]pyridin-2-yl)-1H-pyrazolo[3,4-c]pyridin-5-yl)pyridin-3-yl)isobutyramide] registered an IC50 above 10000 nM.

`Fc1cccc(-c2cncc3[nH]c(-c4n[nH]c5cnc(-c6cncc(OCCN7CCCC7)c6)cc45)nc23)c1` [Compound 894, 3-(7-(3-Fluorophenyl)-3H-imidazo[4,5-c]pyridin-2-yl)-5-(5-(2-(pyrrolidin-1-yl)ethoxy)pyridin-3-yl)-1H-pyrazolo[3,4-c]pyridine] yielded a concentration for half-maximal inhibition (IC50) above 10000 nM.

In the case of `CCCC(=O)Nc1cncc(-c2cc3c(-c4nc5c(-c6cccc(F)c6)cncc5[nH]4)n[nH]c3cn2)c1` [Compound 17, N-(5-(3-(7-(3-Fluorophenyl)-3H-imidazo[4,5-c]pyridin-2-yl)-1H-pyrazolo[3,4-c]pyridin-5-yl)pyridin-3-yl)butyramide], the IC50 stood at 17 nM.

On to `Fc1cccc(-c2cncc3[nH]c(-c4n[nH]c5cnc(-c6cnccn6)cc45)nc23)c1` [Compound 902, 3-(7-(3-Fluorophenyl)-3H-imidazo[4,5-c]pyridin-2-yl)-5-(pyrazin-2-yl)-1H-pyrazolo[3,4-c]pyridine], for which it took 50 nM to reach half-maximal inhibition (IC50). Compared with the last compound, the IC50 is about 2.9-fold higher.

In the case of `Fc1cccc(-c2cncc3[nH]c(-c4n[nH]c5cnc(-c6cncc(OCc7ccccc7)c6)cc45)nc23)c1` [Compound 898, 5-(5-(Benzyloxy)pyridin-3-yl)-3-(7-(3-fluorophenyl)-3H-imidazo[4,5-c]pyridin-2-yl)-1H-pyrazolo[3,4-c]pyridine], the concentration for half-maximal inhibition (IC50) is 520 nM.

`Fc1cccc(-c2cncc3[nH]c(-c4n[nH]c5cnc(-c6cncc(OC7CCNCC7)c6)cc45)nc23)c1` [Compound 892, 3-(7-(3-Fluorophenyl)-3H-imidazo[4,5-c]pyridin-2-yl)-5-(5-(piperidin-4-yloxy)pyridin-3-yl)-1H-pyrazolo[3,4-c]pyridine] came in with an IC50 above 10000 nM.

The compound `Fc1cccc(-c2cncc3[nH]c(-c4n[nH]c5cnc(-c6cn[nH]c6)cc45)nc23)c1` [Compound 887, 3-(7-(3-Fluorophenyl)-3H-imidazo[4,5-c]pyridin-2-yl)-5-(1H-pyrazol-4-yl)-1H-pyrazolo[3,4-c]pyridine] displayed an IC50 of 6 nM.

For `CCCCC(=O)Nc1cncc(-c2cc3c(-c4nc5c(-c6ccccc6F)cncc5[nH]4)n[nH]c3cn2)c1` [Compound 70, N-(5-(3-(7-(2-Fluorophenyl)-3H-imidazo[4,5-c]pyridin-2-yl)-1H-pyrazolo[3,4-c]pyridin-5-yl)pyridin-3-yl)pentanamide], the IC50 was 127 nM. This IC50 lies about 21-fold higher than the previous one.

Compound `CC(C)CC(=O)Nc1cncc(-c2cc3c(-c4nc5c(-c6cccc(F)c6)cncc5[nH]4)n[nH]c3cn2)c1` [Compound 2, N-(5-(3-(7-(3-Fluorophenyl)-3H-imidazo[4,5-c]pyridin-2-yl)-1H-pyrazolo[3,4-c]pyridin-5-yl)pyridin-3-yl)-3-methylbutanamide] yielded an IC50 of 120 nM. This IC50 and that of the compound before are within 1.5-fold of each other.

Regarding `CC(C)CC(=O)Nc1cncc(-c2cc3c(-c4nc5c(-c6ccc(F)cc6)cncc5[nH]4)n[nH]c3cn2)c1` [Compound 28, N-(5-(3-(7-(4-Fluorophenyl)-3H-imidazo[4,5-c]pyridin-2-yl)-1H-pyrazolo[3,4-c]pyridin-5-yl)pyridin-3-yl)-3-methylbutanamide], half-maximal inhibition (IC50) was put at 170 nM. The IC50 values of the last two compounds are within 1.5-fold of each other.

`Fc1cccc(-c2cncc3[nH]c(-c4n[nH]c5cnc(-c6cncc(OC7CCCCC7)c6)cc45)nc23)c1` [Compound 891, 5-(5-(Cyclohexyloxy)pyridin-3-yl)-3-(7-(3-fluorophenyl)-3H-imidazo[4,5-c]pyridin-2-yl)-1H-pyrazolo[3,4-c]pyridine]: the IC50 amounted to 735 nM.

For `CC(C)C(=O)Nc1cncc(-c2cc3c(-c4nc5c(-c6ccccc6F)cncc5[nH]4)n[nH]c3cn2)c1` [Compound 61, N-(5-(3-(7-(2-Fluorophenyl)-3H-imidazo[4,5-c]pyridin-2-yl)-1H-pyrazolo[3,4-c]pyridin-5-yl)pyridin-3-yl)isobutyramide], half-maximal inhibition (IC50) required 123 nM. Against the preceding compound, the IC50 is about 6-fold lower.

As to `O=C(Nc1cncc(-c2cc3c(-c4nc5c(-c6ccc(F)cc6)cncc5[nH]4)n[nH]c3cn2)c1)C1CCC1` [Compound 46, N-(5-(3-(7-(4-Fluorophenyl)-3H-imidazo[4,5-c]pyridin-2-yl)-1H-pyrazolo[3,4-c]pyridin-5-yl)pyridin-3-yl)cyclobutanecarboxamide], the IC50 was determined as 165 nM.

Compound `O=C(Nc1cncc(-c2cc3c(-c4nc5c(-c6cccc(F)c6)cncc5[nH]4)n[nH]c3cn2)c1)C1CC1` [Compound 19, N-(5-(3-(7-(3-Fluorophenyl)-3H-imidazo[4,5-c]pyridin-2-yl)-1H-pyrazolo[3,4-c]pyridin-5-yl)pyridin-3-yl)cyclopropanecarboxamide] showed an IC50 of 21.6 nM. This IC50 is about 7.6-fold lower than that of the compound before.

Consider `CCCCC(=O)Nc1cncc(-c2cc3c(-c4nc5c(-c6ccoc6)cncc5[nH]4)n[nH]c3cn2)c1` [Compound 278, N-(5-(3-(7-(Furan-3-yl)-3H-imidazo[4,5-c]pyridin-2-yl)-1H-pyrazolo[3,4-c]pyridin-5-yl)pyridin-3-yl)pentanamide], for which the midpoint of inhibition, the IC50, lay at 115 nM.

For the compound `CC(C)Nc1cncc(-c2cc3c(-c4nc5c(-c6cccnc6)cncc5[nH]4)n[nH]c3cn2)c1` [Compound 90, N-Isopropyl-5-(3-(7-(pyridin-3-yl)-3H-imidazo[4,5-c]pyridin-2-yl)-1H-pyrazolo[3,4-c]pyridin-5-yl)pyridin-3-amine], the IC50 is 93.5 nM.

The compound `CC(C)(C)C(=O)Nc1cncc(-c2cc3c(-c4nc5c(-c6ccc(F)cc6)cncc5[nH]4)n[nH]c3cn2)c1` [Compound 34, N-(5-(3-(7-(4-Fluorophenyl)-3H-imidazo[4,5-c]pyridin-2-yl)-1H-pyrazolo[3,4-c]pyridin-5-yl)pyridin-3-yl)pivalamide] returned an IC50 of 174 nM. This IC50 is about 1.9-fold higher than that of the compound before.
